Measurements reported in ChEMBL document CHEMBL1201862, “PubChem BioAssay data set” (2004).
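A five-concentration, 48-hour dose response in 96-well plates underlies each endpoint, interpolated linearly between surrounding concentrations. The concentration for 50% growth inhibition is given as GI50.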 Active and inactive are the calls of the source. Cut-off read from the data, not from the text of the source: active = GI50 up to about 1.1 µM and inactive = higher.

Tests used:
Assay in all cases: inhibition of tumour cell growth, NCI panel, 48 h
[1] = tested on: NCI-H460
[2] = tested on: OVCAR-3
[3] = tested on: OVCAR-5
[4] = tested on: UACC-257
[5] = tested on: SW-620
[6] = tested on: SF-268
[7] = tested on: HCT-116
[8] = tested on: SK-OV-3
[9] = tested on: U-251
[10] = tested on: A549
[11] = tested on: SK-MEL-2
[12] = tested on: K562
[13] = tested on: UACC-62
[14] = tested on: HL-60
[15] = tested on: A498
[16] = tested on: RXF 393
[17] = tested on: M14
[18] = tested on: SNB-19
[19] = tested on: CAKI-1
[20] = tested on: RPMI-8226

| Structure (SMILES) | GI50 [1] | GI50 [2] | GI50 [3] | GI50 [4] | GI50 [5] | GI50 [6] | GI50 [7] | GI50 [8] | GI50 [9] | GI50 [10] | GI50 [11] | GI50 [12] | GI50 [13] | GI50 [14] | GI50 [15] | GI50 [16] | GI50 [17] | GI50 [18] | GI50 [19] | GI50 [20] |
| --- | --- | --- | --- | --- | --- | --- | --- | --- | --- | --- | --- | --- | --- | --- | --- | --- | --- | --- | --- | --- |
| Nc1ccc2cc(S(=O)(=O)O)cc(O)c2c1/N=N/c1ccc(NC(=O)Nc2ccc(/N=N/c3c(N)ccc4cc(S(=O)(=O)O)cc(O)c34)c(S(=O)(=O)O)c2)cc1S(=O)(=O)O | > 100 µM (inactive) | > 100 µM (inactive) | > 79.6 µM (inactive) | > 100 µM (inactive) | > 100 µM (inactive) | > 100 µM (inactive) | > 100 µM (inactive) | > 100 µM (inactive) | > 100 µM (inactive) | > 100 µM (inactive) | > 100 µM (inactive) | > 100 µM (inactive) | > 100 µM (inactive) | 44.4 µM (inactive) | > 100 µM (inactive) | > 100 µM (inactive) |  |  |  |  |
| CCNC(=S)N/N=C/c1ccccn1 | 4.94 µM (inactive) | 0.729 µM (active) | 15.4 µM (inactive) | 6.65 µM (inactive) | 6 µM (inactive) | 2.4 µM (inactive) | 8.93 µM (inactive) | 5.07 µM (inactive) | 6.55 µM (inactive) | 7.62 µM (inactive) | 42.2 µM (inactive) | 2.86 µM (inactive) | 9.98 µM (inactive) | 3.74 µM (inactive) | 5.09 µM (inactive) | 19 µM (inactive) | 9.4 µM (inactive) | 19.6 µM (inactive) |  |  |
| O=C1NC(c2cccc3ccccc23)Nc2ccccc21 (centres undefined) | 0.0506 µM (active) | 0.015 µM (active) | 0.133 µM (active) | 0.0465 µM (active) | 0.0277 µM (active) | 0.832 µM (active) | 0.0336 µM (active) | 0.0362 µM (active) | 0.0336 µM (active) | 0.0968 µM (active) | 0.04 µM (active) | < 0.0212 µM (active) | < 0.0184 µM (active) |  | 0.0262 µM (active) | 0.0302 µM (active) | 0.0298 µM (active) | 0.0399 µM (active) | < 0.0409 µM (active) | 0.0257 µM (active) |
| COC1OC2COC1(OC)C1OC(C)(C)OC21 (centres undefined) | > 100 µM (inactive) | > 100 µM (inactive) | > 100 µM (inactive) | > 100 µM (inactive) | > 100 µM (inactive) | > 100 µM (inactive) | > 100 µM (inactive) | > 100 µM (inactive) | > 100 µM (inactive) | > 100 µM (inactive) | > 100 µM (inactive) | > 100 µM (inactive) | > 100 µM (inactive) |  | > 100 µM (inactive) | > 100 µM (inactive) | > 100 µM (inactive) | > 100 µM (inactive) | > 100 µM (inactive) | > 100 µM (inactive) |
| Cn1nc(-c2ccccc2)c(C(=O)/C=C/c2ccccc2)c(N2CCCC2)c1=O | 10.3 µM (inactive) |  |  |  | 17.9 µM (inactive) | 13.7 µM (inactive) | 5.94 µM (inactive) | 22.7 µM (inactive) | 12.9 µM (inactive) | 19.9 µM (inactive) |  | 7.14 µM (inactive) | 13.9 µM (inactive) | 4.34 µM (inactive) | 11.4 µM (inactive) | 6.59 µM (inactive) | 15.7 µM (inactive) |  |  | 6.35 µM (inactive) |
| FC(F)(F)c1ccc2c(c1)nc1n2C(c2c(Cl)cccc2Cl)SC1 (centres undefined) | 16.8 µM (inactive) | 13.2 µM (inactive) | 15.5 µM (inactive) | 18.9 µM (inactive) | 24.3 µM (inactive) | 19.1 µM (inactive) | 15.1 µM (inactive) | 25.8 µM (inactive) | 19.3 µM (inactive) | 18.2 µM (inactive) | 17.7 µM (inactive) |  | 14.4 µM (inactive) | 23.8 µM (inactive) | 17.9 µM (inactive) | 14.4 µM (inactive) | 16.1 µM (inactive) | 19.1 µM (inactive) | 14.9 µM (inactive) |  |
| CC1(CO)COS(=O)OC1 (centres undefined) | > 100 µM (inactive) | > 100 µM (inactive) |  | > 100 µM (inactive) | > 100 µM (inactive) | > 100 µM (inactive) | > 100 µM (inactive) | > 100 µM (inactive) | > 100 µM (inactive) | > 100 µM (inactive) |  |  |  |  | 1.89 µM (inactive) | > 100 µM (inactive) |  | > 100 µM (inactive) |  |  |
| O=C(NC1CCCCC1)NC12CC3CC(CC(F)(C3)C1)C2 | > 100 µM (inactive) | > 100 µM (inactive) | > 100 µM (inactive) | > 100 µM (inactive) | > 100 µM (inactive) |  | > 100 µM (inactive) | > 100 µM (inactive) | > 100 µM (inactive) | > 100 µM (inactive) | > 100 µM (inactive) | > 100 µM (inactive) | > 100 µM (inactive) | > 100 µM (inactive) | > 100 µM (inactive) | > 100 µM (inactive) | > 100 µM (inactive) | > 100 µM (inactive) |  | > 100 µM (inactive) |
